Experimental data published in patent US11351164B2, “Inhibitors of indoleamine 2,3-dioxygenase and methods of their use” (BRISTOL-MYERS SQUIBB COMPANY, priority 2016, dated 2022).

What follows are compounds tested against T1, human IDO1 (Homo sapiens, UniProt P14902) (assay: IDO inhibition assay in HEK293 cells stably expressing human IDO1 (kynurenine, Ehrlich reagent, absorbance 490 nm)). Settings: 20 hours incubation, read-out: IDO1 HEK Human IC50.
T1 construct: expressed in transfected cells
Format: cell-based
Description: HEK293 cells were transfected with a pCDNA-based mammalian expression vector harboring human IDO1 cDNA (NM 002164.2) by electroporation. They were cultured in medium (DMEM with 10% FBS) containing 1 mg/ml G418 for two weeks. Clones of HEK293 cells that stably expressed human IDO1 protein were selected and expanded for IDO inhibition assay. The human IDO1/HEK293 cells were seeded at 10,000 cells per 50 μL per well with RPMI/phenol red free media contains 10% FBS in a 384-well black wall clear bottom tissue culture plate (Matrix Technologies LLC) 100 nL of certain concentration of compound was then added to each well using ECHO liquid handling systems. The cells were incubated for 20 hours in 37° C. incubator with 5% CO2. The compound treatments were stopped by adding trichloroacetic acid (Sigma-Aldrich) to a final concentration at 0.2%. The cell plate was further incubated at 50° C. for 30 minute. The equal volume supernatant ([…]) and 0.2% (w/v) Ehrlich reagent (4-dimethylaminobenzaldehyde, Sigma-Aldrich) in glacial acetic acid were mixed in a new clear bottom 384-well plate. This plate was then incubated at room temperature for 30 minute. The absorbance at 490 nm was measured on Envision plate reader. Compound IC50 values were calculated using the counts of 500 nM of a reference standard treatment as one hundred percent inhibition, and counts of no compound but DMSO treatment as zero percent inhibition.

T1 sequence (P14902 whole entry): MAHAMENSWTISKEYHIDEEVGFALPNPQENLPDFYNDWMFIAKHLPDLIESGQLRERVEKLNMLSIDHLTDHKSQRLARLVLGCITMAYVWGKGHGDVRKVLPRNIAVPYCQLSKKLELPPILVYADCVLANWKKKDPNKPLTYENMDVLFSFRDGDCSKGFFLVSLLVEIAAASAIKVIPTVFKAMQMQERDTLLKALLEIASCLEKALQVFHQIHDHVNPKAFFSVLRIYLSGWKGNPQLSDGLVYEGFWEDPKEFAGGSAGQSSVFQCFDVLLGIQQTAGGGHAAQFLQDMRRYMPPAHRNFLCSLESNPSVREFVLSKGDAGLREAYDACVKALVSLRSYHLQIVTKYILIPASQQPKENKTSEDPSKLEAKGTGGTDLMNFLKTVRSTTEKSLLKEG

Row | IC50 [nM] | SMILES
1 | 66.3 | CC(C)Oc1ccc(-c2nnc([C@H](C)[C@H]3CC[C@@H](c4ccnc5ccc(F)cc54)CC3)o2)cc1 [Example 18, 2-((R)-1-((1s,4S)-4-(6-fluoroquinolin-4-yl)cyclohexyl)ethyl)-5-(4-isopropoxyphenyl)-1,3,4-oxadiazole]
2 | 1.7 | CCC(Nc1nnc(-c2ccc(F)cc2)o1)C1CCC(c2ccnc3ccc(C(F)(F)F)cc23)CC1 (single isomer, unassigned) [Example 62, 5-(4-fluorophenyl)-N-(1-((1s,4s)-4-(6-(trifluoromethyl)quinolin-4-yl)cyclohexyl)propyl)-1,3,4-oxadiazol-2-amine]
3 | 6 | CCC(Nc1nnc(-c2ccc(OC)cc2)o1)C1CCC(c2ccnc3ccc(C(F)(F)F)cc23)CC1 (single isomer, unassigned) [Example 59, 5-(4-methoxyphenyl)-N-(1-((1s,4s)-4-(6-(trifluoromethyl)quinolin-4-yl)cyclohexyl)propyl)-1,3,4-oxadiazol-2-amine]
4 | 42.3 | C[C@@H](c1nnc(-c2ccc(F)cc2)[nH]1)[C@H]1CC[C@@H](c2ccnc3ccc(F)cc32)CC1 [Example 3, 6-Fluoro-4-((1s,4s)-4-((R)-1-(5-(4-fluorophenyl)-4H-1,2,4-triazol-3-yl)ethyl)cyclohexyl)quinoline]
5 | 18.4 | CCC(c1nnc(Nc2ccc(OC)cc2)[nH]1)C1CCC(c2ccnc3ccc(F)cc23)CC1 (single isomer, unassigned) [Example 56, 5-(1-(4-(6-Fluoroquinolin-4-yl)cyclohexyl)propyl)-N-(4-methoxyphenyl)-4H-1,2,4-triazol-3-amine]
6 | 0.9 | CCC(Nc1nnc(-c2ccc(OC)cc2)o1)[C@H]1CC[C@@H](c2ccnc3ccc(F)cc32)CC1 (single isomer, unassigned) [Example 49-1, N-(1-((1s,4s)-4-(6-Fluoroquinolin-4-yl)cyclohexyl)propyl)-5-(4-methoxyphenyl)-1,3,4-oxadiazol-2-amine]
7 | 9 | C[C@@H](Nc1nnc(C2CCCCC2)o1)[C@H]1CC[C@@H](c2ccnc3ccc(F)cc32)CC1 [Example 27, 5-Cyclohexyl-N—((R)-1-((1s,4S)-4-(6-fluoroquinolin-4-yl)cyclohexyl)ethyl)-1,3,4-oxadiazol-2-amine]
8 | 747 | Cc1ccc(-c2nnc([C@H](C)[C@H]3CC[C@@H](c4ccnc5ccc(F)cc54)CC3)[nH]2)cc1F [Example 10, 6-fluoro-4-((1S,4s)-4-((R)-1-(5-(3-fluoro-4-methylphenyl)-4H-1,2,4-triazol-3-yl)ethyl)cyclohexyl)quinoline]
9 | 177 | CCC(Nc1nnc(-c2ccc(OC)cc2)o1)[C@H]1CC[C@@H](c2ccnc3ccc(F)cc32)CC1 (single isomer, unassigned) [Example 49-2, N-(1-((1s,4s)-4-(6-Fluoroquinolin-4-yl)cyclohexyl)propyl)-5-(4-methoxyphenyl)-1,3,4-oxadiazol-2-amine]
10 | 42.7 | C[C@@H](Nc1nnc(-c2ccc(F)cc2)o1)[C@H]1CC[C@@H](c2ccnc3ccc(F)cc32)CC1 [Example 31, 5-(4-fluorophenyl)-N-((R)-1-((1s,4S)-4-(6-fluoroquinolin-4-yl)cyclohexyl)ethyl)-1,3,4-oxadiazol-2-amine]
11 | 141 | CCC(Nc1nnc(-c2ccc(OC)cc2)o1)[C@H]1CC[C@@H](c2ccnc(F)c2C)CC1 (single isomer, unassigned) [Example 63-2, N-(1-((1s,4s)-4-(2-Fluoro-3-methylpyridin-4-yl)cyclohexyl)propyl)-5-(4-methoxyphenyl)-1,3,4-oxadiazol-2-amine]
12 | 37 | C[C@@H](c1nnc(-c2ccc(C#N)cc2)s1)[C@H]1CC[C@@H](c2ccnc3ccc(F)cc32)CC1 [Example 6, 4-(5-((R)-1-((1s,4S)-4-(6-Fluoroquinolin-4-yl)cyclohexyl)ethyl)-1,3,4-thiadiazol-2-yl)benzonitrile]
13 | 64.1 | COc1ccc(-c2nnc(N[C@H](C)[C@H]3CC[C@@H](c4ccnc5ccc(F)cc54)CC3)o2)cn1 [Example 33, N-((R)-1-((1s,4S)-4-(6-fluoroquinolin-4-yl)cyclohexyl)ethyl)-5-(6-methoxypyridin-3-yl)-1,3,4-oxadiazol-2-amine]

Each compound was assayed against T2, indoleamine 2,3-dioxygenase (IDO) (Homo sapiens, UniProt P14902) (assay: HeLa cell-based indoleamine 2,3-dioxygenase (IDO) assay (IFNγ-induced kynurenine production, absorbance 480 nm)). Settings: HeLa cells, IFNγ 25 ng/mL, 48 hour incubation.
T2 construct: host or cells: HeLa cells treated with IFNγ (25 ng/mL)
Description: Assessment of inhibitor activity in HeLa cell-based indoleamine 2,3-dioxygenase (IDO) assay:
HeLa (ATCC® CCL-2) cells were obtained from the ATCC® and cultured in Dulbecco's Modified Eagle Medium supplemented with 4.5 g/L glucose, […] L-glutamine and […] (#10-013-CV, Corning), 2 mM L-alanyl-L-glutamine dipeptide (#35050-061, Gibco), 100U/mL penicillin, 100 μg/mL stroptomycin (#SV30010. HyClone) and 10% fetal bovine serum (#SH30071.03 HyClone). Cells were maintained in a humidified incubator at 37° C. in 5% CO2.
IDO activity was assessed as a function of kynurenine production as follows: HeLa cells were seeded in a 96-well culture plate at a density of 5,000 cells/well and allowed to equilibrate overnight. After 24 hours, the media was aspirated and replaced with media containing IFNγ (#285-IF/CF, R&D Systems) at a final concentration of 25 ng/mL. A serial dilution of each test compound was added to the cells in a total volume of 200 μL of culture medium. After a further 48 hour incubation, 170 μL of supernatant was transferred from each well to a fresh 96-well plate, 12.1 μL of 6.1N trichloroacetic acid (#T0699, Sigma-Aldrich) was added to each well and mixed, followed by incubation at 65° C. for 20 minutes to hydrolyze N-formylkynurenine, the product of indoleamine 2,3-dioxygenase, to kynurenine. The reaction mixture was then centrifuged for 10 mins at 500×g to sediment the precipitate. 100 μL of the supernatant was transferred from each well to a fresh 96-well plate. 100 μl of 2% (w/v) p-dimethylaminobenzaldehyde (#15647-7, Sigma-Aldrich) in acetic acid (#A6283, Sigma-Aldrich) was added to each well mixed and incubated at room temperature for 20 mins. Kynurenine concentrations were determined by measuring absorbance at 480 nm and calibrating against an L-kynurenine (#K8625, Sigma-Aldrich) standard curve using a SPECTRAMAX® M2e microplate reader (Molecular Devices). The percentage activity at each inhibitor concentration was determined and IC50 values assessed using nonlinear regression.

T2 sequence (P14902 whole entry): as above

Row | SMILES | IC50 [nM]
14 | CC(C)Oc1ccc(-c2nnc([C@H](C)[C@H]3CC[C@@H](c4ccnc5ccc(F)cc54)CC3)o2)cc1 [Example 18, 2-((R)-1-((1s,4S)-4-(6-fluoroquinolin-4-yl)cyclohexyl)ethyl)-5-(4-isopropoxyphenyl)-1,3,4-oxadiazole] | 55.5
15 | CCC(Nc1nnc(-c2ccc(F)cc2)o1)C1CCC(c2ccnc3ccc(C(F)(F)F)cc23)CC1 (single isomer, unassigned) [Example 62, 5-(4-fluorophenyl)-N-(1-((1s,4s)-4-(6-(trifluoromethyl)quinolin-4-yl)cyclohexyl)propyl)-1,3,4-oxadiazol-2-amine] | 3.5
16 | CCC(Nc1nnc(-c2ccc(OC)cc2)o1)C1CCC(c2ccnc3ccc(C(F)(F)F)cc23)CC1 (single isomer, unassigned) [Example 59, 5-(4-methoxyphenyl)-N-(1-((1s,4s)-4-(6-(trifluoromethyl)quinolin-4-yl)cyclohexyl)propyl)-1,3,4-oxadiazol-2-amine] | 4.7
17 | CCC(Nc1nnc(-c2ccc(OC)cc2)o1)C1CCC(c2ccnc3ccc(C(F)(F)F)cc23)CC1 (single isomer, unassigned) [Example 60, 5-(4-methoxyphenyl)-N-(1-((1s,4s)-4-(6-(trifluoromethyl)quinolin-4-yl)cyclohexyl)propyl)-1,3,4-oxadiazol-2-amine] | 54.8
18 | C[C@@H](c1nnc(-c2ccc(F)cc2)[nH]1)[C@H]1CC[C@@H](c2ccnc3ccc(F)cc32)CC1 [Example 3, 6-Fluoro-4-((1s,4s)-4-((R)-1-(5-(4-fluorophenyl)-4H-1,2,4-triazol-3-yl)ethyl)cyclohexyl)quinoline] | 16.7
19 | CCC(Nc1nnc(-c2ccc(OC)cc2)o1)[C@H]1CC[C@@H](c2ccnc3c(C(F)(F)F)cccc32)CC1 (stereo partly drawn) [Example 68, 5-(4-Methoxyphenyl)-N-(1-((1s,4s)-4-(8-(trifluoromethyl)quinolin-4-yl)cyclohexyl)propyl)-1,3,4-oxadiazol-2-amine] | 20.2
20 | C[C@@H](Nc1ncc(-c2ccc(Cl)cc2)s1)[C@H]1CC[C@@H](c2ccnc3ccc(F)cc32)CC1 [Example 39, 5-(4-Chlorophenyl)-N—((R)-1-((1s,4S)-4-(6-fluoroquinolin-4-yl)cyclohexyl)ethyl)thiazol-2-amine] | 288
21 | C[C@@H](Nc1ncc(-c2ccc(Cl)cc2)o1)[C@H]1CC[C@@H](c2ccnc3ccc(F)cc32)CC1 [Example 38, 5-(4-Chlorophenyl)-N—((R)-1-((1s,4S)-4-(6-fluoroquinolin-4-yl)cyclohexyl)ethyl)oxazol-2-amine] | 21.1

Next, values leading:

Row | IC50 [nM] | SMILES
22 | 26.2 | CCC(Nc1nnc(-c2ccc(OC)cc2)o1)[C@H]1CC[C@@H](c2ccnc(F)c2C)CC1 (single isomer, unassigned) [Example 63-1, N-(1-((1s,4s)-4-(2-Fluoro-3-methylpyridin-4-yl)cyclohexyl)propyl)-5-(4-methoxyphenyl)-1,3,4-oxadiazol-2-amine]
23 | 15.6 | COCC(Nc1nnc(-c2ccc(OC)cc2)o1)[C@H]1CC[C@@H](c2ccnc3ccc(F)cc32)CC1 (single isomer, unassigned) [Example 65-1, N-(1-((1s,4s)-4-(6-Fluoroquinolin-4-yl)cyclohexyl)-2-methoxyethyl)-5-(4-methoxyphenyl)-1,3,4-oxadiazol-2-amine]
24 | 326 | CCC(Nc1nnc(-c2ccc(Cl)cc2)o1)[C@H]1CC[C@@H](c2ccnc3ccc(C(F)(F)F)cc32)CC1 (single isomer, unassigned) [Example 58-1, 5-(4-Chlorophenyl)-N-(1-((1s,4s)-4-(6-(trifluoromethyl)quinolin-4-yl)cyclohexyl)propyl)-1,3,4-oxadiazol-2-amine]
25 | 7.4 | CCC(Nc1nnc(-c2ccc(Cl)cc2)o1)[C@H]1CC[C@@H](c2ccnc3ccc(C(F)(F)F)cc32)CC1 (single isomer, unassigned) [Example 58-2, 5-(4-Chlorophenyl)-N-(1-((1s,4s)-4-(6-(trifluoromethyl)quinolin-4-yl)cyclohexyl)propyl)-1,3,4-oxadiazol-2-amine]
26 | 916 | CCC(Nc1nnc(-c2ccc(OC)cc2)o1)C1CCC(Oc2ccnc3ccccc23)CC1 (single isomer, unassigned) [Example 64-1]
27 | 8.9 | CCC(Nc1nnc(-c2ccc(OC)cc2)o1)C1CCC(Oc2ccnc3ccccc23)CC1 (single isomer, unassigned) [Example 64-2]
